Reference: patent publication US20250064844A1 (Emory University, priority 2020, published 2025)
Where two headings read alike, the source gives them in different places.

Tests used:
in vitro [1] = conditions: both, human, plasma
in vitro [2] = conditions: male, CD-1, mouse, microsomes, pH 7.4
in vitro [3] = conditions: male, CD-1, mouse, plasma
[4] = cynomolgus monkey, in vivo, po; for AUC0->24h / CL / Cmax / Tmax / t1/2: 0.4 mmol/kg
in vitro [5] = conditions: monkey, plasma
in vitro [6] = conditions: dog, plasma
in vitro [7] = conditions: male, Sprague-Dawley, rat, plasma
[8] = human, in vivo
in vivo = conditions: ICR (CD-1), mouse, 15 mg/kg
in vitro [9] = conditions: both, human, microsomes, pH 7.4
in vitro [10] = conditions: monkey, microsomes, pH 7.4

SMILES: CC(C)C(=O)OC[C@H]1O[C@@H](n2ccc(NO)nc2=O)[C@H](OC(=O)C(C)C)[C@@H]1OC(=O)C(C)C [EIDD-2800]
- half-life at 1 μM (in vitro [1]): 1 min
- half-life (in vitro [2]): < 1 min
- half-life at 1 μM (in vitro [3]): 1 min
- F* ([4]; female): ~16%
- F* ([4]; male): ~27%
- half-life at 1 μM (in vitro [5]): 2 min

SMILES: CC(C)C(=O)OC[C@H]1O[C@@H](n2ccc(NO)nc2=O)[C@H](O)[C@@H]1O [EIDD-2801]
- AUC0−>t (Vero cells): 1724 pmol · h/M cells
- Cmax (Vero cells): 121.2 pmol/M Cells
- half-life at 1 μM (in vitro [1]): 63 min
- half-life at 1 μM (in vitro [6]): 192 min
- AUC0−>t (HepG2 cells): 360.3 pmol · h/M cells
- Cmax (HepG2 cells): 18.9 pmol/M Cells
- half-life at 1 μM (in vitro [3]): 1 min
- F* ([4]; female): ~26%
- F* ([4]; male): ~22%
- AUC0−>t (CEM cells): 85.3 pmol · h/M cells
- Cmax (CEM cells): 5.4 pmol/M Cells
- half-life at 1 μM (in vitro [7]): 1 min
- half-life at 1 μM (in vitro [5]): 24 min
- hematological parameters [8]: no clinically significant changes in hematological parameters
- AUC0−>t (Huh-7 cells): 1025 pmol · h/M cells
- Cmax (Huh-7 cells): 77.5 pmol/M Cells

SMILES: CC(C)[C@H](N)C(=O)OC[C@H]1O[C@@H](n2ccc(NO)nc2=O)[C@H](O)[C@@H]1O [EIDD-2898]
- AUC(0-inf) (in vivo): 8.23 µM·h
- Cmax (in vivo): 23.1 µM
- Tmax (in vivo): 4.8 min
- half-life (in vivo): 20.4 min
- half-life (in vitro [9]): 14 min
- half-life at 1 μM (in vitro [1]): 198 min
- half-life at 1 μM (in vitro [3]): 144 min
- F* ([4]; female): ~15%
- AUC0->24h ([4]; female): 26.9 ± 4.8 µM·h
- CL ([4]; female): 265 ± 53.3 mL/min/kg
- Cmax ([4]; female): 15.9 ± 8.1 µM
- Tmax ([4]; female): 78 ± 30 min
- t1/2 ([4]; female): 33 ± 15 min
- F* ([4]; male): ~18%
- AUC0->24h ([4]; male): 26.1 ± 5.2 µM·h
- CL ([4]; male): 273 ± 51.7 mL/min/kg
- Cmax ([4]; male): 9.1 ± 2.7 µM
- Tmax ([4]; male): 138 ± 57.6 min
- t1/2 ([4]; male): 31.8 ± 9.6 min
- half-life at 1 μM (in vitro [5]): 138 min
- half-life (in vitro [10]): 13 min
